Laboratory results reported in a melting point compilation (Tetko et al.; mined from patent text by program, amines drawn as free bases though some values may be those of a salt).

Q: Which melting point does the source give for O=C(Nc1ccc2c(c1)CCN(C(=O)OCc1ccccc1)C2)OCc1ccccc1 here?
A: Its melting point is 115 to 116 °C.

Q: Which melting point does the source give for CCC(=O)Oc1ccc2c(c1)CCC1C2CCC2(C)C1CC(O)C2OC(=O)CC (configuration not stated) here?
A: Its melting point is 105 °C.

Q: For CCOP(=O)(Cc1cc(=O)[nH]c2cc(I)ccc12)OCC, which melting point is on record?
A: Its melting point is 196 to 198 °C.

Q: Which melting point does the source give for Cc1ccc(=NC(=O)C(F)(F)F)n(Cc2ccc(Cl)s2)c1 here?
A: The melting point was 170 °C.

Q: For Cc1cccc(NC(=O)c2cn(-c3ccccc3)c3ccccc3c2=O)n1, which melting point is on record?
A: The melting point was 273 to 274 °C.

Q: With CS(=O)(=O)NCCCCn1c(CC2CC2)nc2c(N)nc3ccccc3c21 as the molecule, how does the melting point read?
A: The melting point was 200 to 201 °C.

Q: For Cc1cccc(NC(=O)C2=C(O)c3ccc4ccccc4c3S(=O)(=O)N2C)c1, which melting point is on record?
A: Its melting point is 240 to 242 °C.

Q: With COCCOc1cc2cc(C(=O)OC)c(C(=O)OC)c(-c3ccncc3)c2cc1OC as the molecule, how does the melting point read?
A: The melting point was 156 to 158 °C.

Q: Which melting point does the source give for CC(C)[C@H](NC(=O)OCc1ccccc1)C(=O)N[C@@H](Cc1ccccc1)[C@@H](O)[C@@H](O)[C@H](Cc1ccccc1)NC(=O)[C@@H](NC(=O)N1CCN(C)CC1)C(C)C here?
A: The melting point was 216 to 219 °C.

Q: With COc1ccc2nc([C@H](CC(C)C)NC(=O)OCc3ccccc3)[nH]c2c1 as the molecule, how does the melting point read?
A: Its melting point is 73 to 77 °C.

Q: For CCCc1c(OCCCOc2ccc3c(c2CCC)OC(C(=O)OC)CC3)ccc(C(C)=O)c1O (configuration not stated), which melting point is on record?
A: Its melting point is 70 to 72 °C.

Q: With OCc1cccc2nc(N3CCCCC3)sc12 as the molecule, how does the melting point read?
A: The melting point was 107 to 108 °C.

Q: Which melting point does the source give for COc1ccc(Cl)c(S(=O)(=O)NC(=O)c2cn3cc(C(F)(F)F)cc(Br)c3n2)c1 here?
A: The melting point was 191 to 192 °C.

Q: With O=C1c2ccccc2-c2[nH]c(=O)cnc21 as the molecule, how does the melting point read?
A: The melting point was > 300 °C.

Q: For CCOC(=O)C1CCN(S(=O)(=O)c2ccc(Br)cc2)CC1, which melting point is on record?
A: The melting point was 132 to 133 °C.

Q: With N#Cc1ccc(C=NO)c([N+](=O)[O-])c1 as the molecule, how does the melting point read?
A: The melting point was 162 to 163 °C.

Q: With CCONC(=O)NNC(=O)CC as the molecule, how does the melting point read?
A: The melting point was 122 °C.

Q: For Cc1nn(-c2cc(F)c(C#N)cc2F)c(C)c1Cl, which melting point is on record?
A: Its melting point is 153 °C.

Q: Which melting point does the source give for CCc1c(CC)n(Cc2ccccc2Cl)c2cc(C(N)=O)ccc12 here?
A: Its melting point is 185 to 188 °C.

Q: With CCCCS(=O)(=O)c1c(Cl)nc(Cl)nc1Cl as the molecule, how does the melting point read?
A: The melting point was 71 to 72 °C.

Q: Which melting point does the source give for CCCc1c(OCCCOc2ccc(C(=O)OCC)cc2F)ccc(C(C)=O)c1O here?
A: Its melting point is 87 to 88 °C.

Q: With CCOc1nn(-c2cc(C(F)(F)F)ccn2)cc1CCCOc1ccc(CCC(=O)O)cc1OC as the molecule, how does the melting point read?
A: The melting point was 111 to 112 °C.

Q: For CCCCCCc1ccc(CCCCC(N)(CO)CO)cc1, which melting point is on record?
A: Its melting point is 99 to 102 °C.

Q: With C=C(C)COc1ccc2c(=O)c(C)c(-c3ccccc3)oc2c1C(=O)C=Cc1cc(OC)c(OC)c(OC)c1 as the molecule, how does the melting point read?
A: Its melting point is 82 to 84 °C.

Q: For COC(=O)Cn1c(C)cc(CC2CCCCC2)c([N+](=O)[O-])c1=O, which melting point is on record?
A: The melting point was 128 °C.

Q: With N#Cc1nn(-c2c(Cl)cc(C(F)(F)F)cc2Cl)cc1-c1ccccc1C(F)(F)F as the molecule, how does the melting point read?
A: The melting point was 142 to 143 °C.

Q: With CN(C)[C@@H]1CN2C(=O)N(c3cc(Cl)cc(Cl)c3)C(=O)[C@@]2(Cc2ccc(Br)cc2)C1 as the molecule, how does the melting point read?
A: Its melting point is 54 °C.

Q: With CCOc1cc2c(cc1OC)C(c1ccc(C(=O)OC)cc1)=N[C@@H]1CCOC[C@H]21 as the molecule, how does the melting point read?
A: Its melting point is 141 to 143 °C.

Q: For COC(=O)c1nc(CN2CCOCC2)n(-c2ccc(Cl)cc2C(=O)c2ccccc2)n1, which melting point is on record?
A: Its melting point is 165 to 170 °C.

Q: Which melting point does the source give for O=C(c1ccc(F)cc1)N1CCC[C@H](c2noc(-c3ccc(F)cn3)n2)C1 here?
A: The melting point was 108 to 110 °C.

Q: For O=C(Nc1c(Cl)cnn1-c1c(F)c(F)c(C(F)(F)F)c(F)c1F)C(Cl)Cl, which melting point is on record?
A: Its melting point is 115 to 116 °C.

Q: For O=C1CC[C@@H](CCCO)[C@H](c2ccc(OCc3ccccc3)cc2OCc2ccccc2)C1 (relative stereo), which melting point is on record?
A: The melting point was 110 to 117 °C.

Q: For CN1c2ccccc2N(C(=O)c2ccc(-c3ccccc3)cc2)Cc2cccnc21, which melting point is on record?
A: The melting point was 220 to 223 °C.

Q: With COc1cc(C=C(C#N)C(=O)NCCC(C)NC(=O)C(C#N)=Cc2cc(O)c(O)c(OC)c2)cc(O)c1O (configuration not stated) as the molecule, how does the melting point read?
A: Its melting point is > 300 °C.

Q: With Cc1cc(CC=CCc2cc(C)c(O)c(C(C)(C)C)c2)cc(C(C)(C)C)c1O as the molecule, how does the melting point read?
A: The melting point was 99 to 106 °C.

Q: Which melting point does the source give for CCCCCCCCc1ccc(S(=O)(=O)Nc2nncs2)cc1 here?
A: The melting point was 123 to 124 °C.

Q: Which melting point does the source give for COc1ccc(C2=NN(c3ccc([N+](=O)[O-])cc3)C(=O)[C@H]3CC=CC[C@@H]23)cc1OC (relative stereo) here?
A: The melting point was 179 to 182 °C.

Q: Which melting point does the source give for c1ccc2c(c1)-c1ccccc1C21c2ccccc2-c2ccc(-n3ccnc3-c3nccn3-c3ccc4c(c3)C3(c5ccccc5-c5ccccc53)c3ccccc3-4)cc21 here?
A: The melting point was 404 to 412 °C.

Q: With O=C(c1ccn2c1CSC2c1cccnc1)c1cn(Cc2nnn[nH]2)c2cc(-c3ccc(F)cc3)ccc12 (configuration not stated) as the molecule, how does the melting point read?
A: The melting point was 110 to 118 °C.

Q: For CC1(C)OC(=O)Nc2ccc(-c3ccc(F)cc3)cc21, which melting point is on record?
A: Its melting point is 232 to 233 °C.

Q: For COc1ccc([C@H]2CCCC[C@H]2NC(=O)c2ccc(C(=O)c3ccccc3)cc2)cc1OC, which melting point is on record?
A: The melting point was 119 to 122 °C.

Q: For COc1ccc(-c2cc3cc(OC)cc(C(O)C(F)(F)F)c3o2)cc1 (configuration not stated), which melting point is on record?
A: Its melting point is 120 to 122 °C.

Q: Which melting point does the source give for CC(C)(C)c1cc(C(=O)Nc2cccc(OCc3cccnc3)c2)ccc1O here?
A: The melting point was 104 to 107 °C.

Q: Which melting point does the source give for Nc1sc2c(c1C(=O)c1ccsc1)CCN(Cc1ccccc1)C2 here?
A: Its melting point is 131 to 133 °C.

Q: With O=C(O)c1ccc(-c2cc(-c3ccc(Cl)cc3)no2)cc1 as the molecule, how does the melting point read?
A: Its melting point is > 300 °C.

Q: For N#Cc1c(N2CCCC2)c(F)cc2c(=O)c(C(=O)O)cn(C3CC3)c12, which melting point is on record?
A: Its melting point is 274 to 276 °C.

Q: For CN(CC#CC1=Cc2ccccc2Sc2ccc(Cl)cc21)CCO, which melting point is on record?
A: The melting point was 86 to 88 °C.
